The values that follow come from patent publication US7163949B1, “4-phenyl substituted tetrahydroisoquinolines and use thereof” (AMR Technology, Inc., priority 1999, dated 2007).

Counter-ions that a name gives are not always drawn.

Test system in the first data set: not given
Conditions: not given
With `CN1Cc2cc(C(F)(F)F)ccc2C(c2ccccc2)C1` (stereo not shown), the melting point was in the range of 257 to 275 °C.
Still for that read-out and setting: with `Cc1ccc2c(c1)C(C)N(C)CC2c1ccccc1` (stereo not shown) the figure was 87 to 89 °C; with `FCc1ccc2c(c1CF)CN(CF)CC2c1ccccc1` (stereo not shown), 108 to 113 °C.
With `Cc1c(F)ccc2c1CN(C)CC2c1ccccc1` (stereo not shown), the melting point fell in the range of 185 to 186 °C.
On the same count and under the same terms, with `COc1c(C)ccc2c1CN(C)CC2c1ccccc1` (stereo not shown) the figure was 130 to 131 °C.
The same measure, in the same setting: with `Cc1ccc2c(c1O)CN(C)CC2c1ccccc1` (stereo not shown) the figure was 260 to 261 °C; with `CN1Cc2cc(OC(F)(F)F)ccc2C(c2ccccc2)C1` (stereo not shown), 150 to 151 °C (dec.); with `CN1Cc2cc(Oc3ccccc3)ccc2C(c2ccccc2)C1` (stereo not shown), 175 to 176 °C (dec.).
As for `CN1Cc2cc(OCc3ccccc3)ccc2C(c2ccccc2)C1` (stereo not shown), the melting point was in the range of 155 to 156 °C.
In the case of `Cc1ccc2c(c1)CN(C)CC2c1ccc(F)c(C)c1` (stereo not shown), the melting point was 174 to 175 °C.
With `CN1Cc2c(CO)cccc2C(c2ccccc2)C1` (stereo not shown), the melting point lay in the range of 144 to 146 °C.
The same measure, in the same setting: with `Cc1cc(F)c2c(c1)C(C)N(C)C(F)C2c1ccccc1` (stereo not shown) (as salt: HCl) the figure was 194 to 197 °C (dec.).
With `CNCc1ccc2c(c1F)CN(C)CC2c1ccccc1` (stereo not shown) (as salt: HCl), the melting point fell in the range of 185 to 205 °C.
Same read-out and setting: with `CN1Cc2cc(CO)ccc2C(c2ccccc2)C1` (stereo not shown) (as salt: HCl) the figure was 237 to 240 °C (dec.).
On the same count and under the same terms, with `Cc1ccc2c(c1F)CN(C)CC2c1ccccc1` (stereo not shown) (as salt: hydrochloride) the figure was 215 to 216 °C.

In another data set the test system is dopamine transporter protein over the norepinephrine transporter protein. As to conditions: selectivity for dopamine transporter protein over norepinephrine transporter protein; cited from earlier work.
On to `COC(=O)C(c1ccccc1)C1CCCCN1` (stereo not shown) [Methylphenidate], for which the “DAT/NET Ki ratio” value is 0.1.

For orientation: melting point means the temperature, or range, at which the solid turns liquid.
